This experiment deals with T1, Cytochrome P450 26A1 (Homo sapiens, UniProt O43174).
T1 sequence (O43174 whole entry): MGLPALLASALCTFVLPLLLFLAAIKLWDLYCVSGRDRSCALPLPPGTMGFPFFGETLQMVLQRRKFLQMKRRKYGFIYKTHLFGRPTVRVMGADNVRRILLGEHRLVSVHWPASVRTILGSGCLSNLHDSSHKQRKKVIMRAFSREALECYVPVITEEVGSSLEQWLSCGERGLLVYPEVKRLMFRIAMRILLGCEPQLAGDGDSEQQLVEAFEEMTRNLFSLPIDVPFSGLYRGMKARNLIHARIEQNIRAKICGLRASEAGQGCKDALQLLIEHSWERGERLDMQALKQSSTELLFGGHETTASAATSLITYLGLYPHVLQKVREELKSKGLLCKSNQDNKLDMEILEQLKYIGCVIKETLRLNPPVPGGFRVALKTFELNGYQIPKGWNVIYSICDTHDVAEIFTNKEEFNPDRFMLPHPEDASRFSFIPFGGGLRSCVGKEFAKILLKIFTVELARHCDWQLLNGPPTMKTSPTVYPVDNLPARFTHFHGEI
As to the kind of experiment: Cell Assay.

Bounds are passed on as bounds.

With `O=C(O)c1ccc(C(c2ccc(Nc3nc4ccccc4o3)cc2)n2ccnc2)cc1` (centres undefined) [Oxazolamine derivative, 5d], the IC50 turned out to be 50 µM. `Fc1ccc(C(c2ccc(Nc3nc4ccccc4o3)cc2)n2ccnc2)cc1` (centres undefined) [Oxazolamine derivative, 5a] showed a 50% inhibitory concentration (IC50) of 35 µM. The value for `CCC(CC)C(c1ccc(Nc2nc3ccccc3s2)cc1)n1cncn1` (centres undefined) [R115866] was 0.005 µM; that for `COc1ccc(C(c2ccc(Nc3nc4ccccc4o3)cc2)n2ccnc2)cc1` (centres undefined) [Oxazolamine derivative, 5e] was more than 20 µM. The value for `c1ccc(C(c2ccc(Nc3nc4ccccc4o3)cc2)n2cnnc2)cc1` (centres undefined) [1H-1,2,4-triazole, 12] was more than 20 µM. For `Oc1ccc(C(c2ccc(Nc3nc4ccccc4o3)cc2)n2ccnc2)cc1` (centres undefined) [Oxazolamine derivative, 5f] the value was 12 µM. In turn, `c1ccc(C(c2ccc(Nc3nc4ccccc4o3)cc2)n2cnnn2)cc1` (centres undefined) [1H-tetrazole, 13] had an IC50 of more than 20 µM. The value for `COC(=O)c1ccc(C(c2ccc(Nc3nc4ccccc4o3)cc2)n2ccnc2)cc1` (centres undefined) [Oxazolamine derivative, 5c] was 20 µM; that for `c1ccc(C(c2ccc(Nc3nc4ccccc4o3)cc2)n2cncn2)cc1` (centres undefined) [1H-1,2,4-triazole, 11] was 18 µM.

By IC50 is commonly meant the point on the concentration scale where inhibition reaches its midpoint.

The values above are taken from BindingDB's records for doi:10.1080/14756360802218334 (Cardiff University, 2009).
